How the values were obtained:
S100A4 [1] = biological target: T1, S100A4 (Homo sapiens, UniProt P26447); assay: S100A4 biosensor (Mero-S100A4) fluorescence assay for S100A4 inhibitors; assay type: biochemical; settings: screening assay: 5 μM S100A4 biosensor (dimer), 100 μM FDA approved drug, 0.3 mM CaCl2; controls: no addition 8475, calcium 14996, calcium + EGTA 6088
T1 construct: It is a chemical label, not a fused protein
Description: We produced and characterized a fluorescent analog of S100A4 (Mero-S100A4) that reports calcium binding, and thus serves to identify activated S100A4 (Garrett et al., 2004). To produce the S100A4 biosensor that monitors protein activation (i.e., calcium binding) Cys81 was derivatized with the ISO-IAA dye to a stoichiometry of 1:1 (FIG. 2).
Binding of the Mero-S100A4 to myosin-IIA results in only a small increase in fluorescence intensity (FIG. 3, right panel). These observations indicate that the S100A4 biosensor reports only calcium binding and not target binding. In addition, calcium binding studies indicate that mutagenesis and dye attachment have not altered the binding affinity of the labeled S100A4 for calcium (data not shown).
A total of 333 FDA approved drugs were tested for their ability to inhibit S100A4, using the biosensor described in Example 1. Screening assays used 5 μM S100A4 biosensor (dimer concentration), 100 μM FDA approved drug, buffer: 50 mM Tris-HCl, pH 7.5, 150 mM NaCl, 0.3 mM CaCl2, 0.02% NaN3, 1 mM DTT, 10% DMSO. […] 100 μl assay volume.

S100A4 [2] = biological target: T1, S100A4; assay: as above; assay type: biochemical; settings: 5 μM S100A4 biosensor, 0-400 μM small molecule inhibitor, 0.3 mM CaCl2 buffer

T1 sequence (P26447 whole entry C3A/C76A/C86A, form open, the tested form may be a part): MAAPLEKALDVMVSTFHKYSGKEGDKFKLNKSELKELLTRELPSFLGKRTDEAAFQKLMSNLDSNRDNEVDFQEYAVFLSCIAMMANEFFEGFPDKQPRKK

Arbitrary Fluorescence Units (S100A4 [1]) | IC50 (S100A4 [2]) [µM] | SMILES
6954 Arbitrary Fluorescence Units | 35 | CC(C)COCC(CN(Cc1ccccc1)c1ccccc1)N1CCCC1 (stereo not drawn) [bepridil]
7977 Arbitrary Fluorescence Units | 145 | CN(C)CC/C=C1/c2ccccc2Sc2ccc(Cl)cc21 [chlorprothixene]
7898 Arbitrary Fluorescence Units | 133 | CN(C)CCCN1c2ccccc2CCc2ccc(Cl)cc21 [clomipramine]
– | 256 | CN1CCC(=C2c3ccccc3C=Cc3ccccc32)CC1 [cyproheptadine]
6449 Arbitrary Fluorescence Units | 59 | OCCN1CCN(CC/C=C2/c3ccccc3Sc3ccc(C(F)(F)F)cc32)CC1 [flupenthixol-cis]
6908 Arbitrary Fluorescence Units | 46 | OCCN1CCN(CCCN2c3ccccc3Sc3ccc(C(F)(F)F)cc32)CC1 [fluphenazine]
7759 Arbitrary Fluorescence Units | 23 | CC(=O)N1CCN(c2ccc(OCC3COC(Cn4ccnc4)(c4ccc(Cl)cc4Cl)O3)cc2)CC1 (stereo not drawn) [ketoconazole]
7399 Arbitrary Fluorescence Units | 164 | OCCN1CCN(CCCN2c3ccccc3Sc3ccc(Cl)cc32)CC1 [perphenazine]
5505 Arbitrary Fluorescence Units | 33 | CN1CCN(CCCN2c3ccccc3Sc3ccc(Cl)cc32)CC1 [prochlorperazine]
7939 Arbitrary Fluorescence Units | 34 | CN1CCN(CCCN2c3ccccc3Sc3ccc(C(F)(F)F)cc32)CC1 [trifluoperazine]

SMILES | Arbitrary Fluorescence Units (S100A4 [1]) | IC50 (S100A4 [2]) [µM]
CN(C)C(=O)C(CCN1CCC(O)(c2ccc(Cl)cc2)CC1)(c1ccccc1)c1ccccc1 [loperamide] | 3820 Arbitrary Fluorescence Units | 18

Reference: patent publication US8236791B2, “Assays for S100 inhibitors” (Albert Einstein College of Medicine of Yeshiva University, priority 2005, dated 2012)
